These are literature values, as cited in US20250179582A1, “METHODS FOR TREATING CANCER PATIENTS WITH HOMOLOGOUS RECOMBINATION DEFICIENCY BASED ON TEMPLATED INSERTIONS” (Memorial Sloan-Kettering Cancer Center, priority 2022, published 2025).

For the data set, the system named is relapsed high-grade serous ovarian/endometrioid/primary peritoneal/or fallopian carcinoma. Particulars: rucaparib versus placebo.

SMILES strings stand for the structures. Where two headings read alike, the source gives them in different places.

For `CNCc1ccc(-c2[nH]c3cc(F)cc4c3c2CCNC4=O)cc1` [rucaparib], the “progression-free survival hazard ratio (HR)” value runs as follows: (germline or somatic mutated BRCA1/2 cohort, patients with at least a partial response to platinum therapy) 0.23; (patients with high genomic LOH) 0.44; (patients with low genomic LOH) 0.58.
